The CheMixHub viscosity set
± gives the uncertainty stated by the source.

Experiment: xn = mol fraction of the nth substance listed

CCCCCCCCCCCCBr + BrC(Br)C(Br)Br
101 kPa
Conditions | viscosity [mPa·s]
298.08 K, x1 = 0.1586 | 7.196 ± 0.18
298.08 K, x1 = 0.3004 | 5.936 ± 0.15
298.08 K, x1 = 0.4493 | 5.091 ± 0.13
298.08 K, x1 = 0.6166 | 4.392 ± 0.11
298.08 K, x1 = 0.7772 | 3.877 ± 0.099
303.1 K, x1 = 0.1376 | 6.506 ± 0.17
303.1 K, x1 = 0.2855 | 5.399 ± 0.14
303.1 K, x1 = 0.4255 | 4.58 ± 0.12
303.1 K, x1 = 0.6541 | 3.787 ± 0.097
303.1 K, x1 = 0.7773 | 3.437 ± 0.088
308.11 K, x1 = 0.1363 | 5.669 ± 0.14
308.11 K, x1 = 0.289 | 4.673 ± 0.12
308.11 K, x1 = 0.4415 | 4.027 ± 0.1
308.11 K, x1 = 0.6215 | 3.498 ± 0.09
308.11 K, x1 = 0.7595 | 3.147 ± 0.081
313.11 K, x1 = 0.1456 | 5.011 ± 0.13
313.11 K, x1 = 0.2924 | 4.238 ± 0.11
313.11 K, x1 = 0.4286 | 3.667 ± 0.094
313.11 K, x1 = 0.634 | 3.093 ± 0.079
313.11 K, x1 = 0.782 | 2.781 ± 0.071

CCOC(C)=O + C1CCCCC1
viscosity [mPa·s], 101 kPa
Conditions | 298.15 K | 308.15 K
x1 = 0.0548 | 0.841 ± 0.085 | 0.706 ± 0.071
x1 = 0.1549 | 0.765 ± 0.077 | 0.63 ± 0.063
x1 = 0.2552 | 0.7 ± 0.07 | 0.569 ± 0.057
x1 = 0.3558 | 0.643 ± 0.065 | 0.52 ± 0.052
x1 = 0.4539 | 0.595 ± 0.06 | 0.481 ± 0.048
x1 = 0.4998 | 0.575 ± 0.058 | 0.466 ± 0.047
x1 = 0.5513 | 0.554 ± 0.056 | 0.451 ± 0.045
x1 = 0.6549 | 0.516 ± 0.052 | 0.426 ± 0.043
x1 = 0.7515 | 0.486 ± 0.049 | 0.408 ± 0.041
x1 = 0.8531 | 0.458 ± 0.046 | 0.395 ± 0.04
x1 = 0.9536 | 0.435 ± 0.044 | 0.387 ± 0.039

CCOc1ccccc1 + C1CCOC1
viscosity [mPa·s], 101.33 kPa
Conditions | x1 = 0.031 | x1 = 0.072 | x1 = 0.117 | x1 = 0.197 | x1 = 0.246 | x1 = 0.326 | x1 = 0.492 | x1 = 0.695 | x1 = 0.899
298 K | 0.475 ± 0.011 | 0.493 ± 0.011 | 0.515 ± 0.012 | 0.555 ± 0.013 | 0.581 ± 0.013 | 0.627 ± 0.014 | 0.736 ± 0.016 | 0.891 ± 0.02 | 1.067 ± 0.023
303 K | 0.451 ± 0.011 | 0.468 ± 0.011 | 0.487 ± 0.011 | 0.524 ± 0.012 | 0.547 ± 0.012 | 0.587 ± 0.013 | 0.684 ± 0.015 | 0.824 ± 0.018 | 0.985 ± 0.022
308 K | 0.431 ± 0.01 | 0.447 ± 0.01 | 0.464 ± 0.011 | 0.496 ± 0.011 | 0.518 ± 0.012 | 0.554 ± 0.013 | 0.642 ± 0.014 | 0.766 ± 0.017 | 0.908 ± 0.02

CCOC(C)=O + C1COCCO1
Conditions | viscosity [mPa·s]
303.15 K, 101 kPa, x2 = 0.1021 | 0.435 ± 0.005
303.15 K, 101 kPa, x2 = 0.2024 | 0.466 ± 0.005
303.15 K, 101 kPa, x2 = 0.2982 | 0.505 ± 0.005
303.15 K, 101 kPa, x2 = 0.4026 | 0.553 ± 0.006
303.15 K, 101 kPa, x2 = 0.4968 | 0.602 ± 0.006
303.15 K, 101 kPa, x2 = 0.6025 | 0.668 ± 0.007
303.15 K, 101 kPa, x2 = 0.697 | 0.742 ± 0.007
303.15 K, 101 kPa, x2 = 0.8007 | 0.834 ± 0.008
303.15 K, 101 kPa, x2 = 0.9003 | 0.948 ± 0.009
303.15 K, 101.32 kPa, x1 = 0.0451 | 1.02 ± 0.03
303.15 K, 101.32 kPa, x1 = 0.0948 | 0.948 ± 0.024
303.15 K, 101.32 kPa, x1 = 0.1332 | 0.901 ± 0.023
303.15 K, 101.32 kPa, x1 = 0.1779 | 0.848 ± 0.022
303.15 K, 101.32 kPa, x1 = 0.2236 | 0.802 ± 0.021
303.15 K, 101.32 kPa, x1 = 0.3187 | 0.717 ± 0.019
303.15 K, 101.32 kPa, x1 = 0.4176 | 0.648 ± 0.017
303.15 K, 101.32 kPa, x1 = 0.467 | 0.616 ± 0.016
303.15 K, 101.32 kPa, x1 = 0.5155 | 0.59 ± 0.015
303.15 K, 101.32 kPa, x1 = 0.6182 | 0.539 ± 0.014
303.15 K, 101.32 kPa, x1 = 0.7243 | 0.497 ± 0.013
303.15 K, 101.32 kPa, x1 = 0.8297 | 0.456 ± 0.012
303.15 K, 101.32 kPa, x1 = 0.9411 | 0.422 ± 0.011
308.15 K, 101 kPa, x2 = 0.1 | 0.439 ± 0.006
308.15 K, 101 kPa, x2 = 0.2 | 0.475 ± 0.006
308.15 K, 101 kPa, x2 = 0.3 | 0.506 ± 0.007
308.15 K, 101 kPa, x2 = 0.4 | 0.542 ± 0.007
308.15 K, 101 kPa, x2 = 0.5 | 0.58 ± 0.008
308.15 K, 101 kPa, x2 = 0.6 | 0.625 ± 0.008
308.15 K, 101 kPa, x2 = 0.8 | 0.756 ± 0.01
308.15 K, 101 kPa, x2 = 0.9 | 0.852 ± 0.011
313.15 K, 101.32 kPa, x1 = 0.209 | 0.717 ± 0.019
313.15 K, 101.32 kPa, x1 = 0.405 | 0.583 ± 0.015
313.15 K, 101.32 kPa, x1 = 0.5144 | 0.528 ± 0.014
313.15 K, 101.32 kPa, x1 = 0.602 | 0.49 ± 0.013
313.15 K, 101.32 kPa, x1 = 0.7994 | 0.423 ± 0.011

CCCCCCCCCCCC(=O)OC + C1C[C@@H]2[C@H]3CC[C@H](C3)[C@@H]2C1
viscosity [mPa·s], 100 kPa
Conditions | x2 = 0.1012 | x2 = 0.2004 | x2 = 0.3001 | x2 = 0.4004 | x2 = 0.5021 | x2 = 0.6003 | x2 = 0.7003 | x2 = 0.8001 | x2 = 0.8991
293.15 K | 3.062 ± 0.065 | 3.012 ± 0.064 | 2.973 ± 0.064 | 2.927 ± 0.063 | 2.896 ± 0.063 | 2.874 ± 0.063 | 2.864 ± 0.063 | 2.877 ± 0.064 | 2.909 ± 0.065
298.15 K | 2.73 ± 0.058 | 2.69 ± 0.057 | 2.659 ± 0.057 | 2.625 ± 0.057 | 2.599 ± 0.056 | 2.585 ± 0.056 | 2.58 ± 0.057 | 2.595 ± 0.057 | 2.628 ± 0.059
303.15 K | 2.454 ± 0.052 | 2.419 ± 0.052 | 2.397 ± 0.051 | 2.369 ± 0.051 | 2.349 ± 0.051 | 2.339 ± 0.051 | 2.338 ± 0.051 | 2.356 ± 0.052 | 2.388 ± 0.053
308.15 K | 2.218 ± 0.047 | 2.191 ± 0.047 | 2.173 ± 0.047 | 2.152 ± 0.046 | 2.134 ± 0.046 | 2.129 ± 0.046 | 2.13 ± 0.047 | 2.149 ± 0.048 | 2.183 ± 0.049
313.15 K | 2.018 ± 0.043 | 1.994 ± 0.043 | 1.98 ± 0.042 | 1.963 ± 0.042 | 1.951 ± 0.042 | 1.946 ± 0.042 | 1.949 ± 0.043 | 1.969 ± 0.044 | 2.001 ± 0.045
318.15 K | 1.844 ± 0.039 | 1.824 ± 0.039 | 1.813 ± 0.039 | 1.799 ± 0.039 | 1.789 ± 0.039 | 1.787 ± 0.039 | 1.791 ± 0.039 | 1.811 ± 0.04 | 1.841 ± 0.041
323.15 K | 1.693 ± 0.036 | 1.676 ± 0.036 | 1.668 ± 0.036 | 1.656 ± 0.036 | 1.647 ± 0.036 | 1.647 ± 0.036 | 1.652 ± 0.036 | 1.672 ± 0.037 | 1.702 ± 0.038

CCOc1ccccc1 + CC1COC(=O)O1
viscosity [mPa·s], 101.33 kPa
Conditions | x2 = 0.1218 | x2 = 0.2226 | x2 = 0.3591 | x2 = 0.4874 | x2 = 0.5257 | x2 = 0.5674 | x2 = 0.6723 | x2 = 0.7807 | x2 = 0.8898 | x2 = 0.9431
293.15 K | 1.338 ± 0.015 | 1.436 ± 0.016 | 1.586 ± 0.018 | 1.739 ± 0.02 | 1.789 ± 0.02 | 1.837 ± 0.021 | 1.985 ± 0.023 | 2.17 ± 0.025 | 2.405 ± 0.027 | 2.544 ± 0.029
303.15 K | 1.119 ± 0.013 | 1.202 ± 0.014 | 1.316 ± 0.015 | 1.44 ± 0.016 | 1.474 ± 0.017 | 1.516 ± 0.017 | 1.63 ± 0.019 | 1.773 ± 0.02 | 1.96 ± 0.022 | 2.078 ± 0.024
313.15 K | 0.945 ± 0.011 | 1.013 ± 0.012 | 1.11 ± 0.013 | 1.215 ± 0.014 | 1.246 ± 0.014 | 1.278 ± 0.015 | 1.373 ± 0.016 | 1.495 ± 0.017 | 1.651 ± 0.019 | 1.742 ± 0.02

CCOC(C)=O + CC#N
303.15 K, 101.33 kPa
Conditions | viscosity [mPa·s]
x2 = 0.0931 | 0.3988 ± 0.0035
x2 = 0.1928 | 0.3934 ± 0.0035
x2 = 0.298 | 0.3881 ± 0.0035
x2 = 0.3925 | 0.3819 ± 0.0035
x2 = 0.4985 | 0.3753 ± 0.0034
x2 = 0.5974 | 0.3676 ± 0.0034
x2 = 0.6982 | 0.3591 ± 0.0034
x2 = 0.8001 | 0.3486 ± 0.0033
x2 = 0.8988 | 0.3402 ± 0.0033

OCC(O)CO + CC(=O)N(C)C
viscosity [mPa·s], 101 kPa
Conditions | x1 = 0.124 | x1 = 0.241 | x1 = 0.353 | x1 = 0.459 | x1 = 0.56 | x1 = 0.656 | x1 = 0.748 | x1 = 0.836 | x1 = 0.92
303.15 K | 2.21 ± 0.04 | 3.92 ± 0.07 | 7.04 ± 0.12 | 12.8 ± 0.2 | 29.9 ± 0.5 | 61.6 ± 1 | 120.7 ± 3 | 204.4 ± 7 | 335.7 ± 15
318.15 K | 1.78 ± 0.03 | 3.01 ± 0.05 | 4.79 ± 0.08 | 7.81 ± 0.13 | 17.6 ± 0.3 | 26.3 ± 0.4 | 43.2 ± 0.7 | 75.9 ± 1.3 | 117.4 ± 2.8
